Assay results: patent publication US5849776A, “Medicaments based on metronidazole or on a synergic mixture of metronidazole and clindamycin” (Centre International de Recherches Dermatologiques Galderma …, priority 1994, dated 1998)
“Also recorded” adds a separate entry of the source.

Experiments:
[1] = test system: oedema of the ear of the mouse induced by topical application of arachidonic acid; assay: oedema of the ear of the mouse induced by topical application of arachidonic acid (in vivo topical anti-inflammatory activity); conditions: for % Inhibition of the oedema After 1 h: 1 h after arachidonic acid; for % Inhibition of the oedema After 1 h / % Inhibition of the oedema After 2 h: each active 2% in acetone solution, topical, 25 μl twice daily for 4 days plus last application 2 h before arachidonic acid, vs other ear pretreated with acetone only; for % Inhibition of the oedema After 2 h: 2 h after arachidonic acid; for anti-inflammatory activity (in words): in vivo topical application
Excerpt: The test used to evaluate this activity is that of oedema of the ear of the mouse induced by topical application of arachidonic acid. According to this model, the topical application of arachidonic acid to the ear causes an inflammation which is characterized by the rapid development of an oedema, the latter becoming maximum at the end of one hour after application. The oedematous response is then quantified by measuring the thickness of the ear.
The exact operating protocol is the following: the mice are first of all pretreated with the active product(s) to be evaluated, two topical applications per day (2×25 μl; one application in the morning and the other in the evening) being carried out on one of their ears of an acetone solution containing, at a given concentration, this or these active principle(s); this pretreatment is carried out for four consecutive days. Then, on the fifth day, the mice receive a last application (25 μl) of the solution containing the active principle(s) to be tested, which takes place two hours before the application to the ear thus pretreated of the arachidonic acid intended to produce the oedema (25 μl of a THF/methanol solution containing 4 weight % of arachidonic acid). The oedematous response is then quantified by measuring the thickness of the ear 1 hour and 2 hours after application of the arachidonic acid solution.

[2] = test system: oedema of the ear of the mouse induced by topical application of arachidonic acid; conditions: conventional agents, general statement on the model; cited from earlier work

Row | SMILES | % Inhibition of the oedema After 1 h [1] | % Inhibition of the oedema After 2 h [1] | anti-inflammatory activity (in words) [1] | inhibition in this model (in words) [2]
1 | CCC[C@@H]1C[C@@H](C(=O)N[C@@H]([C@H]2O[C@H](SC)[C@H](O)[C@@H](O)[C@H]2O)[C@H](C)Cl)N(C)C1 [Clindamycin] | (ni) | (ni) | does not, by itself, have any significant activity; also recorded: no, or substantially no, anti-inflammatory activity | 
2 | Cc1ncc([N+](=O)[O-])n1CCO [Metronidazole, 2-methyl-5-nitroimidazole-1-ethanol] | 20% | 36% | good anti-inflammatory activity after in vivo topical application | 
3 | COc1ccc2c(c1)c(CC(=O)O)c(C)n2C(=O)c1ccc(Cl)cc1 [indomethacin] |  |  |  | good inhibitors in this model
4 | COc1ccc2cc([C@H](C)C(=O)O)ccc2c1 [naproxen] |  |  |  | good inhibitors in this model
5 | CCCCC1C(=O)N(c2ccccc2)N(c2ccccc2)C1=O [phenylbutazone] |  |  |  | good inhibitors in this model
